From patent publication US11331328B2, “Compositions and methods for inhibiting antiapoptotic Bcl-2 proteins as anti-aging agents” (priority 2014, dated 2022)

Assays:
[1] = test system: senescent WI38 cells induced by replicative exhaustion (Rep-SC); test: Cell viability, LD50 in replicative senescent WI-38 cells; format: cell-based, human; settings: Table 2
Method: (§1) Human WI-38 fibroblasts (WI38 cells, #CCL-75™), human IMR-90 fibroblasts (IMR90 cells, #CCL-186™), human renal epithelial cells (REC cells, #PCS-400-012™) were obtained from ACTT (Manassas, Va., USA). Mouse embryonic fibroblasts (MEF) were isolated from mouse embryos as described^1. All cells were cultured in a complete medium (CM) (Dulbecco's Modified Eagle Medium supplemented with 10% fetal bovine serum [FBS], 100 U/ml penicillin, and 100 μg/ml streptomycin [all from Atlanta Biologicals, Norcross, Ga., and USA]) in a humidified incubator at 37° C. and 5% CO2. Low passages of WI-38 cells (<25), IMR-90 (<25), REC cells (<25) and MEF (<3) were used as non-senescent controls or for induction of senescence to avoid replicative senescence. To induce replicative senescence, WI-38 cells were subcultivated until cell division ceased after about 38 passages or 60 population doublings (FIG. 5)^2. […]
Flow cytometry: Non-senescent and senescent cells were seeded into wells of 24- or 48-well at about 70% of confluence. […] Viable cells (PI^− cells) were numerated by flow cytometry at a constant flow rate and calculated as a percentage of control cells treated with vehicle using the formula: percentage of control=(Ndrug/NC)×100, where Ndrug and NC represent the absolute number of PI^− viable cells of drug-treated and vehicle-treated cells, respectively. […]

[2] = test system: caspase 3, caspase 8; test: Western blot analysis of caspase activation; format: cell-based, human; settings: IR-SC WI-38; 1.25 μM ABT263, 24 h
Method: Cells (1×10^6) were lysed in 100 μl lysis buffer (20 mM Tris-HCl, pH 7.4, 150 mM NaCl, 1 mM EDTA. 1 mM EGTA, 10% glycerol, 1.0% NP-40, 0.1 M NaF, 1 mM DTT, 1 mM PMSF, 1 mM NaVO4, 2 μg/ml leupeptin and aprotinin) for 30 min on ice, and cell extracts were sonicated 3 times (5 secs each time) on ice with a 25-sec interval in between using a Sonic Dismembrator Ultrasonic Convertor (Model F60, from Fisher, Pittsburgh, Pa., USA). The protein concentrations were quantified using the Bio-Rad Dc protein assay kit (Bio-Rad Laboratories, Hercules, Calif., USA). Equal amounts of protein (25-50 μg/lane) from each extract was resolved on 12% SDS-PAGE gels. Proteins were blotted to NOVEX NC membranes (Life Technologies, Carlsbad, Calif., USA). The membranes were blocked with TBS-T (5% nonfat milk in 25 mM Tris-HCl, pH 7.4. 3 mM KCl, 140 mM NaCl, and 0.05% Tween) and subsequently probed with primary antibodies at a predetermined optimal concentration as indicated in Supplementary Table 3 overnight at 4° C. or for 1 h at room temperature. […] After three washes with TBS-T, the blots were detected using the ECL Western Blotting Detection Reagents (Cat #WBKLS0100) (EMD MILLIPORE. Newmarket, Suffolk, UK) and recorded by exposure of the blots to X-ray film (Pierce Biotech, Rockford, Ill., USA).

[3] = test system: mouse embryonic fibroblasts (MEF); test: Cell viability, IR-SC vs NC, mouse embryonic fibroblasts; format: cell-based; settings: increasing concentrations, 72 h
Method: as §1
(§2) Flow cytometry: Non-senescent and senescent cells were seeded into wells of 24- or 48-well at about 70% of confluence. […] Viable cells (PI^− cells) were numerated by flow cytometry at a constant flow rate and calculated as a percentage of control cells treated with vehicle using the formula: percentage of control=(Ndrug/NC)×100, where Ndrug and NC represent the absolute number of PI^− viable cells of drug-treated and vehicle-treated cells, respectively.

[4] = test system: IL-1α, TNFα, CCL-5, CXCL-10 mRNA; test: SASP mRNA levels in lungs of TBI p16-3MR mice (qRT-PCR); format: in vivo, mouse; settings: 6 Gy TBI; 2 treatment cycles
Method: To measure p21 and GAPDH mRNA levels in WI-38 cells and IL-1α, TNFα, CCL-5, and CXCL-10 mRNA levels in mouse tissues, SYBR assay kit was used (Applied biosystems in life technologies). Briefly, 1 μl cDNA was mixed with 7.5 μl SYBR Green PCR Master Mix and 0.2 μl of primers (Table 5). Samples were then added with 6.30 μl of H2O to give a total 15 μl of mixture. qPCR conditions were as follows: 95° C. for 10 min, 40×(95° C. for 15 s and 60° C. for 1 min), 95° C. for […], 95° C. for 15 min. All reactions were run in triplicate on an ABI StepOnePlus Real-Time PCR System.

[5] = test system: IR-induced WI-38 SCs; test: Apoptosis analysis (Annexin V/PI flow cytometry); format: cell-based, human; settings: 1.25 μM ABT263, 24 h, with or without 20 μM Q-VD-OPh
Method: Cells were seeded into a 6-well plate at 4-6×10^5 cells/well. […] The cells were harvested 24 h after treatment and resuspended in 1× annexin V binding buffer (BD Biosciences) at 1×10^6 cells/ml. An aliquot (100 μl) of the cell suspension was incubated with 5 μl of Annexin V-FITC (BD Biosciences) or PI (1 mg/ml) for 15 min at room temperature in the dark. After addition of 400 μl of 1× binding buffer, 10,000 cells per sample were analyzed by a BD LSR H flow cytometer (BD Biosciences).

[6] = test system: human IMR-90 fibroblasts; test: Cell viability, IR-SC vs NC, IMR-90 fibroblasts; format: cell-based; settings: increasing concentrations, 72 h
Method: as §1, §2

Structure (SMILES): CC1(C)CCC(c2ccc(Cl)cc2)=C(CN2CCN(c3ccc(C(=O)NS(=O)(=O)c4ccc(N[C@H](CCN5CCOCC5)CSc5ccccc5)c(S(=O)(=O)C(F)(F)F)c4)cc3)CC2)C1 [ABT263, navitoclax]
- LD50 [1]: 1.45 µM
- caspase activation [2]: SCs activated caspase 3, but not caspase 8
- viable cells, IR-SC vs NC [3]: kills IR-induced senescent cells (IR-SC) but not non-senescent cells (NC)
- SASP in lungs [4]: suppressed the SASP induced by TBI
- apoptosis induction [5]: selectively killed SCs by inducing apoptosis, which was abrogated by QVD
- viable cells, IR-SC vs NC [6]: kills IR-induced senescent cells (IR-SC) but not non-senescent cells (NC)
